# Values joined by “and” are separate entries in the source; they are usually repeats but may differ in a detail not shown here. Identical values can stand only once. Like-named read-outs stand apart in the source and are kept apart here.
# Assays:
# AML / acute leukemias = settings: cited from earlier work
# BCRP [1] = assay: Functional expression of BCRP in patient blasts; type: in vivo, human; settings: paired t test, 6 paired samples
# Leukemia blast cells = assay: TRAIL death and decoy receptor protein expression, pre vs on vorinostat; type: in vivo, human
# Pgp (ABCB1) = settings: individual patients' blasts on vorinostat; D < 0.15 = no overexpression
# [2] = Serum vorinostat pharmacokinetics; type: in vivo, human; settings: for AUC(0-t): AUC0-8 h; for AUC(0-inf): AUC0-inf
# [3] = test system: patients with poor-risk or advanced acute leukemias
# leukemic blasts = assay: Cell-cycle phase distribution, pre vs on vorinostat; type: in vivo, human; settings: Mean
# BCRP (ABCG2) = assay: BCRP protein in patient leukemic blasts
# HL-60/W [4] = settings: HL-60 cells, 24-hour exposure to 1 μmol/L vorinostat; cited from earlier work
# Pgp = Pgp (Homo sapiens, UniProt P08183); settings: paired t test, 6 paired samples
# Chain of Pgp (P08183 whole entry): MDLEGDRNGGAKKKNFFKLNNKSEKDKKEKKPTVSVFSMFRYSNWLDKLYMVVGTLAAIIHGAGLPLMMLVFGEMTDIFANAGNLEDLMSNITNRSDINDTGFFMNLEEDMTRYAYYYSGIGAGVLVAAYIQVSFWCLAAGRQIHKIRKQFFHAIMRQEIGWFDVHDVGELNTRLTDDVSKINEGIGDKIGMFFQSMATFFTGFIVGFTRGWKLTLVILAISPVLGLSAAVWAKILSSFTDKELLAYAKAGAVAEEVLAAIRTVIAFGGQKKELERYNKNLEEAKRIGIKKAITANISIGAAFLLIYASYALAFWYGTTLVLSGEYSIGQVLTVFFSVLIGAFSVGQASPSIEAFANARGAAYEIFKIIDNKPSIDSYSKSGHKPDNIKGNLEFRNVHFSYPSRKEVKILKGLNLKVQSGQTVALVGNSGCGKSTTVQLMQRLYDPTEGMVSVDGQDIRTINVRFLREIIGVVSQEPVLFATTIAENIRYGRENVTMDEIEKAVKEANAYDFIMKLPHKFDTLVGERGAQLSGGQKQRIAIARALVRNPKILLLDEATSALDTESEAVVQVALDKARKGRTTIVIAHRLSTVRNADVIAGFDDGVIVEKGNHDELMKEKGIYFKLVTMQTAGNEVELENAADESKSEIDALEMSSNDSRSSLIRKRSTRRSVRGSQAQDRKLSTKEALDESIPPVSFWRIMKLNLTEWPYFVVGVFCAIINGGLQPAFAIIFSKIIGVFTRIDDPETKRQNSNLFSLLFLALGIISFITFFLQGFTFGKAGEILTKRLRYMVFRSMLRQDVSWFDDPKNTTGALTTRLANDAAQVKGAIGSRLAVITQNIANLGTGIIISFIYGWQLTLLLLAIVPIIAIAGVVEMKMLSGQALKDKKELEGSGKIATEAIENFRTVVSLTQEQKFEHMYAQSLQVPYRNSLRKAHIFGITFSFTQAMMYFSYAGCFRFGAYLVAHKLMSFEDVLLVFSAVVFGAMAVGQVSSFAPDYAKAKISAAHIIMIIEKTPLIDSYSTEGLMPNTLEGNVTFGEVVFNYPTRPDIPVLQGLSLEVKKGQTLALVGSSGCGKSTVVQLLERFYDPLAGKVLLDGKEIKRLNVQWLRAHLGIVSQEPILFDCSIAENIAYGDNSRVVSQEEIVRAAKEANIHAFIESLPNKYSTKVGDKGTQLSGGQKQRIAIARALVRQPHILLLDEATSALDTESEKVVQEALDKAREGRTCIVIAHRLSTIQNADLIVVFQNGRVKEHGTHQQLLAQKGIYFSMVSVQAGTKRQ
# [5] = test system: human leukemia cell lines; settings: cited from earlier work
# Buccal mucosa cells = assay: TRAIL death receptor protein expression, pre vs on vorinostat; type: in vivo, human
# buccal mucosal cells = assay: Cell-cycle phase distribution, pre vs on vorinostat; type: in vivo, human
# BCRP [6] = assay: BCRP transcripts in patient leukemic blasts; type: in vivo, human; settings: paired t test, 8 paired samples
# HL-60/W [7] = assay: Control studies for DR or DcR expression; type: cell-based, human
# [8] = human, serum, oral, 200 mg, Median, N 21
compound,measurement,setting,value
Nc1ccccc1NC(=O)c1ccc(CNC(=O)OCc2cccnc2)cc1 [MS-275],clinical responses using classical criteria,"AML / acute leukemias; phase I study, 38 adults with advanced acute leukemias",no clinical responses
CCCC(CCC)C(=O)O [valproic acid],response rate,"AML / acute leukemias; frail or elderly patients with AML, valproic acid alone or in combination with all-trans retinoic acid",5%
"O=C(CCCCCCC(=O)Nc1ccccc1)NO [vorinostat, suberoylanilide hydroxamic acid]","BCRP function, on vs pre vorinostat",BCRP [1],no difference in function
same,Percentage of cells expressing DcR2,"Leukemia blast cells; Mean, N 11, On vorinostat, Pre mean 15.83, P 0.5279",17.56 (11)
same,Percentage of cells expressing DcR1,"Leukemia blast cells; Mean, N 11, On vorinostat, Pre mean 17.59, P 0.1364",25.97 (11)
same,Percentage of cells expressing DR4,"Leukemia blast cells; Mean, N 14, On vorinostat, Pre mean 12.21, P 0.5498",13.82 (14)
same,Percentage of cells expressing DR5,"Leukemia blast cells; Mean, N 14, On vorinostat, Pre mean 14.75, P 0.3617",17.68 (14)
same,"DR4, DR5, DcR1, DcR2 expression, pre vs on vorinostat",Leukemia blast cells; two-sample paired t test or Wilcoxon signed-rank test,no significant differences
same,"Pgp Protein, ON (Kolmogorov–Smirnov D value)",Pgp (ABCB1),0.05 and 0.07 and 0.08
same,Cmax,"[2]; DL2, average",165.2 ± 64.1 ng/mL
same,Cl/F,"[2]; Geometric mean, N 20",277 L
same,Vd/F,"[2]; Geometric mean, N 20",829 L/h
same,Cl/F,"[2]; Mean, N 20, serum, first 200 mg oral dose day 1",300 L
same,Cmax,"[2]; Mean, N 21, serum, first 200 mg oral dose day 1",185 ng/mL
same,Cl/F,"[2]; Median, N 20",265 L
same,Vd/F,"[2]; Median, N 20",689 L/h
same,t1/2,"[2]; Median, N 20",1.7 h
same,AUC(0-t),"[2]; human, serum, oral, 200 mg, Geometric mean, N 21",591 ng·h/mL
same,AUC(0-t),[2]; [8],623 ng·h/mL
same,AUC(0-inf),"[2]; human, serum, oral, 200 mg, Geometric mean, N 20",722 ng·h/mL
same,AUC(0-inf),"[2]; human, serum, oral, 200 mg, Median, N 20",757 ng·h/mL
same,Cmax,"[2]; human, serum, oral, 200 mg, Cmax, 65 years or older age group, average",203 ± 101 ng/mL
same,Cmax,"[2]; human, serum, oral, 200 mg, Cmax, DL1, average",197 ± 90.4 ng/mL
same,Cmax,"[2]; human, serum, oral, 200 mg, Cmax, less than 65 years of age cohort, average",174 ± 174 ng/mL
same,Tmax,"[2]; human, serum, oral, 200 mg, 65 years or older age group, average",1.6 ± 1.1 h
same,Tmax,"[2]; human, serum, oral, 200 mg, DL2, average",3.5 ± 2 h
same,Tmax,[2]; [8],2 h
same,Tmax,"[2]; human, serum, oral, 200 mg, less than 65 years of age cohort, average",3.3 ± 3.3 h
same,half-life,"[2]; human, serum, po, 200 mg",2.5 h
same,Tmax,"[2]; human, serum, po, 200 mg, Mean, N 21, serum, first 200 mg oral dose day 1",2.6 h
same,DLTs,"[3]; DL1, 200 mg vorinostat p.o. twice a day",No DLTs
same,DLTs,"[3]; DL2, 200 mg vorinostat 3 times a day, among 5 dose-escalation-evaluable patients",2
same,% G0–G1,"leukemic blasts; N = 16, On vorinostat (days 4 to 7), Pre mean 83.97, P 0.1519",87.60%
same,% G2–M,"leukemic blasts; N = 16, On vorinostat, Pre mean 3.83, P 0.7556",3.55%
same,% sub-G0/G1,"leukemic blasts; N = 16, On vorinostat, Pre mean 4.29, P 0.0693",2.60%
same,%S,"leukemic blasts; N = 16, On vorinostat, Pre mean 9.22, P 0.2841",7.17%
same,"BCRP Protein, ON (Kolmogorov–Smirnov D value)","BCRP (ABCG2); individual patients' blasts on vorinostat, D < 0.15 = no overexpression",0.05 and 0.15 and 0.19
same,BCRP protein expression following treatment,BCRP (ABCG2); patients 17 and 24,slight decreases
same,TRAIL death and decoy receptor expression,HL-60/W [4],"increased DR4 and DR5 expression, but not DcR1 or DcR2 expression"
same,"Pgp function, on vs pre vorinostat",Pgp,no difference in function
same,interaction between vorinostat and etoposide,[5],synergy
same,"interaction with anthracyclines and etoposide, in vitro cytotoxicity studies",[5],additively or synergistically
same,"interaction, concomitant administration of cytarabine and vorinostat",[5],antagonism
same,"interaction, sequential administration of vorinostat followed by cytarabine",[5],synergism
same,concentrations giving significant reduction in the percentage of S-phase cells,[5]; within 24 hours after in vitro exposure,≥ 1 µmol/L
same,patients with MDR1 expression increased in the on treatment samples,"MDR1; 7 of 8 paired samples, 95% CI, 50%–99%",88%
same,"MDR1 mRNA expression, on vs pre vorinostat among all patients","MDR1; paired t test, 8 paired samples",no significant alteration
same,Percentage of cells expressing DR5,"Buccal mucosa cells; Mean, N 4, On vorinostat, Pre mean 26.46, P 0.9316",25.98 (4)
same,Percentage of cells expressing DR4,"Buccal mucosa cells; Mean, N 4, On vorinostat, Pre mean 27.90, P 0.5873",41.39 (4)
same,"DR4 or DR5 expression, pre vs on vorinostat",Buccal mucosa cells; limited samples,no statistically significant differences
same,% G0–G1,"buccal mucosal cells; Mean, N= 17, On vorinostat (days 4 to 7), Pre mean 77.99, P 0.5705",79.85%
same,% G2–M,"buccal mucosal cells; Mean, N= 17, On vorinostat, Pre mean 2.14, P 0.2586",3.26%
same,%S,"buccal mucosal cells; Mean, N= 17, On vorinostat, Pre mean 11.49, P 0.9168",11.30%
same,% sub-G0–G1,"buccal mucosal cells; Mean, N= 17, On vorinostat, Pre mean 11.74, P 0.1942",7.79%
same,alteration in any cell-cycle phase upon treatment,"buccal mucosal cells; pre vs on vorinostat, 17 patients",no statistically significant alteration
same,"BCRP mRNA expression, on vs pre vorinostat among all patients",BCRP [6],no significant alteration
same,"DcR1, % Positive cells","HL-60/W [7]; 1 μmol/L vorinostat × 24 hours, untreated HL-60/W 23 ± 2",94.3 ±1.7%
same,"DR5, % Positive cells","HL-60/W [7]; 1 μmol/L vorinostat × 24 hours, untreated HL-60/W 47.3 ± 27",84.2 ± 6.5%
same,"DR4, % Positive cells","HL-60/W [7]; 1 μmol/L vorinostat × 24 hours, untreated HL-60/W 55.8 ±14",73.2 ±15%
same,"DcR2, % Positive cells","HL-60/W [7]; 1 μmol/L vorinostat × 24 hours, untreated HL-60/W 56.2 ± 3",96.3 ±1.1%
same,"DR4, DR5, DcR1, and DcR2 expression","HL-60/W [7]; 24-hour exposure to 1 μmol/L vorinostat, P < 0.02, t test",significantly increases
